The values below come from patent US9302991B2, “Arylamide derivatives as TTX-S blockers” (RaQualia Pharma Inc., priority 2010, dated 2016).

For experiment [1], the system named is CFA-induced weight bearing deficit in rats. The experiment can be described thus: CFA-induced weight bearing deficit in rats. Format: in vivo, Sprague-Dawley rats. The following applies: 10 mg/kg per os. As to the method: CFA-Induced Weight Bearing Deficit in Rats
Male Sprague-Dawley rats at 7 weeks old are purchased from Charles River Japan Inc., and housed in groups of two per cage under a 12-h light/dark cycle (lights on at 07:00) with access to food and water ad libitum. CFA-induced weight bearing (WB) deficit is assessed using Incapacitance tester (Linton Instrumentation). The animals are habituated to a plastic case that comes with Incapacitance tester before the day of CFA injection. On the day of CFA injection, the weight distribution of each hind paw is measured 3 times per rat using the tester, and the difference of weight distribution, weight on the right (injected) paw minus weight on left (non-injected) paw, is defined as WB deficit value in g. The duration of the each measurement is adjusted to 3 seconds. CFA is prepared at a concentration of 2-3 mg/mL of Mycobacterium tuberculosis H37 RA in liquid paraffin. After disinfections with 70% ethanol, the rats are injected intraplantarly with 100 microL of CFA (200-300 microgram) into the right hind paw. Two days after CFA injection, the weight distribution of each hind paw is measured and the WB deficit value is calculated in the same manner as mentioned above. […] The weight distribution of each hind paw is measured at the appropriated time after compound administration, and the WB deficit value is calculated as previously explained.

Experiment [2] concerns the target T1, human Nav1.3 (hSCN3A) (Homo sapiens, UniProt Q9NY46).
T1 construct: expressed in transfected cells; host or cells: HEK293
The experiment can be described thus: Electrophysiology assay for Navs, whole cell patch clamp, Nav1.3. It counts as cell-based. The conditions noted are these: Kinact, dissociation constant for the inactivated state, read-out: activities (Ki) against Nav1.3. Here is the method:
Electrophysiology Assay for Navs
Whole cell patch clamp recording is used to assess the efficacy or selectivity of Na channel blocker on human Nav1.3 (hSCN3A) expressing HEK293 cells or human Nav1.7 (hSCN9A) expressing CHO cells. Human Nav1.3 expressing HEK293 cells are grown in growth media which comprised: DMEM, 10% heat-inactivated FBS (Hyclone Laboratories Inc), 100 microgram/mL Penicillin/100 U/mL Streptomycin, 150 microgram/mL Zeocin, 3 microgram/mL Geneticin. Human Nav1.7 expressing CHO cells are grown in growth media which comprised: HAM/F-12, 9% heat-inactivated FBS (Hyclone Laboratories Inc), 100 microgram/mL Penicillin/100 U/mL Streptomycin, 100 microgram/mL Hygromycin.
Na channel expressing cells are dissociated by 0.05% Trypsine-EDTA, and then seeded on cover glass for 24-48 hr. […]
The normalized steady-state inactivation curve is constructed using 2 sec (for vehicle) or 60 sec (for drugs) conditioning pulse to different potentials followed immediately by the test pulse to −10 mV. […] The affinity of drugs to resting state of Na channels (Kresting or Kr) is assessed by 30 msec test pulse from a negative holding potential of −120 or −130 mV, where virtually all channels are in the resting state. Kr value is calculated by a conventional 1:1 binding model: Kresting(Kr)={[drug]Imax,drug/(Imax,control−Imax,drug)} […]
For orientation: In patch-clamp work, channel activity is measured electrically.

The structures appear in SMILES notation.

T1 sequence (Q9NY46 whole entry): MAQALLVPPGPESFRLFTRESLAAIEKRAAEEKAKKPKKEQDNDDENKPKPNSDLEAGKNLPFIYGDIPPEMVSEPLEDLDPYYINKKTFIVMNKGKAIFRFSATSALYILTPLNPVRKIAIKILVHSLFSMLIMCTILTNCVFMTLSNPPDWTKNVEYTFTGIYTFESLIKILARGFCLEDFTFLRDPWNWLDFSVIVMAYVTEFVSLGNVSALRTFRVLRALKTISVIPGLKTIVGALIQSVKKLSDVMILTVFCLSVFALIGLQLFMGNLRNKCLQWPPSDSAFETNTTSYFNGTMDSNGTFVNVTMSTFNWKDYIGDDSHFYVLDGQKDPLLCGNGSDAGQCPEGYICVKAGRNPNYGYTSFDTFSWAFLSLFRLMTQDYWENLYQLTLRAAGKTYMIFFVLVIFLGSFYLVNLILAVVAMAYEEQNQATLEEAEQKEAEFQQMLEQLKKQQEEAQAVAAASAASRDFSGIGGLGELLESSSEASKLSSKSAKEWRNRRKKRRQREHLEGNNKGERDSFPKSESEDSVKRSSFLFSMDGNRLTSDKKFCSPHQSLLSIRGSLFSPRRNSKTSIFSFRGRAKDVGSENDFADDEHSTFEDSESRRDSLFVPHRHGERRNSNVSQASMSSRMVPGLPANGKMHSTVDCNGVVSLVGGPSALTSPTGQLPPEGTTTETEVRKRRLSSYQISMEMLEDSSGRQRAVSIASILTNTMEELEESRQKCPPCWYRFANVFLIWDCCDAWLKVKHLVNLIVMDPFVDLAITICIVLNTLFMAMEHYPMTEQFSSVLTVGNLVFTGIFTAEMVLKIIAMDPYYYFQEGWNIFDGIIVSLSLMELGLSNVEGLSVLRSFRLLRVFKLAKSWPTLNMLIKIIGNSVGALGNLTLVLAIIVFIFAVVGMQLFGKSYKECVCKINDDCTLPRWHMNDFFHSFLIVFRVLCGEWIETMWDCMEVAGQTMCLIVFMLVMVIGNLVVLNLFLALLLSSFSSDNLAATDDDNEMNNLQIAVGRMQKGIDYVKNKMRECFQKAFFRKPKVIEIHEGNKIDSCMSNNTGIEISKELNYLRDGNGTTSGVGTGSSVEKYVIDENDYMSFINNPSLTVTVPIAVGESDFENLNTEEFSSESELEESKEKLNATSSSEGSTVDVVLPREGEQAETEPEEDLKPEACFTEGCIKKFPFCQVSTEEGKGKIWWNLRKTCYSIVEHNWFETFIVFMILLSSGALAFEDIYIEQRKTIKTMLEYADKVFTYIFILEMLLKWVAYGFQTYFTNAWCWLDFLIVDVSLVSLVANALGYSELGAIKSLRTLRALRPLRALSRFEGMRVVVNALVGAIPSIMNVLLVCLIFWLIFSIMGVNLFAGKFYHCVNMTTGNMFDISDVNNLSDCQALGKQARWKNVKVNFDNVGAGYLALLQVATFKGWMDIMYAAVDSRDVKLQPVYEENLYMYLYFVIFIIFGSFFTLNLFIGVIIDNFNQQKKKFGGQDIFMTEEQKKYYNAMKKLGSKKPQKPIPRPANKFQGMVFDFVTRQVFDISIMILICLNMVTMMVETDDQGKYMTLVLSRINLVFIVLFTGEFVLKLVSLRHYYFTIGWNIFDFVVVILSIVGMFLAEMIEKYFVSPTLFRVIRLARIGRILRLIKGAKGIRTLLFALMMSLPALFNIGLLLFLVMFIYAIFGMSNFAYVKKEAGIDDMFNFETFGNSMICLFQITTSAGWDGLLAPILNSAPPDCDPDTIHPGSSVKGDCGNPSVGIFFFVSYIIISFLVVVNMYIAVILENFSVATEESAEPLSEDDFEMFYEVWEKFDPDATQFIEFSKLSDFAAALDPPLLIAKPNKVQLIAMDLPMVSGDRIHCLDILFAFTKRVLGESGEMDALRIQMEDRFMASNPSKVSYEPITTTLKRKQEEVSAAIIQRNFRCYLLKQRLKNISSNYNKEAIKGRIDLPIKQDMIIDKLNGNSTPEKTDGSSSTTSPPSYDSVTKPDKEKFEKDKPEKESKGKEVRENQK

Consider `CC(=O)Nc1cc(C(=O)NC(C)c2ccc(OCC(F)(F)F)nc2)ccn1` (single isomer, unassigned; (-)) [Example 1, (−)-2-acetamido-N-(1-(6-(2,2,2-trifluoroethoxy)pyridin-3-yl)ethyl)isonicotinamide], for which the “activity in CFA-induced weight bearing deficit” value in experiment [1] is given as “significant activity”. The Ki in experiment [2] was determined as 1500 nM.
